Measured values as given in paper PMC8183095, “Uncovering the chemistry of C–C bond formation in C-nucleoside biosynthesis: crystal structure of a C-glycoside synthase/PRPP complex” (Chemical Communications (Cambridge, England), 2020).
One block for each compound: values may come before it.

Experiments:
ForT [1] = biological target: T1, ForT (Streptomyces kaniharaensis, UniProt A0A5S9CYM0); experiment: LCMS product detection; membrane-inlet mass spectrometry of CO2 production; format: biochemical; set-up: gene cof6; recombinant wild type, expressed in and purified from Escherichia coli; residues 11-171, 180-205, 209-341 (C-terminus) seen in the crystal; dimer in solution; details: co-substrate PRPP; Mg2+ apparently needed
T1 sequence (A0A5S9CYM0 1-341): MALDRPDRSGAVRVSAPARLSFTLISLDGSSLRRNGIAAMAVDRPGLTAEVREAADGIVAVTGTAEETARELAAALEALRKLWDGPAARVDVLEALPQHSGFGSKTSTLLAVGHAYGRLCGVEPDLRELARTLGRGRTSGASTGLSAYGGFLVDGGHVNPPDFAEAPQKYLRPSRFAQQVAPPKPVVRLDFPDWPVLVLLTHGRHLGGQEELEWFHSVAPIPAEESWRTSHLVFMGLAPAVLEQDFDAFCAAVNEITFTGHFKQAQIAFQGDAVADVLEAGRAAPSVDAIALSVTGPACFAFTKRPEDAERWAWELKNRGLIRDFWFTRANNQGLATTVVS

[2] = biological target: ForT (wild type), C-glycoside synthase from Streptomyces kaniharaensis (Streptomyces kaniharaensis); experiment: SEC-MALS; gel filtration and multi-angle light scattering of ForT in solution
ForT [3] = biological target: T1, ForT; experiment: biochemical; set-up: gene cof6
ForT [4] = biological target: T2, ForT (Streptomyces kaniharaensis, UniProt A0A5S9CYM0, G134P); experiment: biochemical
T2 construct: gene cof6
T2 sequence (A0A5S9CYM0 entry or part of it G134P): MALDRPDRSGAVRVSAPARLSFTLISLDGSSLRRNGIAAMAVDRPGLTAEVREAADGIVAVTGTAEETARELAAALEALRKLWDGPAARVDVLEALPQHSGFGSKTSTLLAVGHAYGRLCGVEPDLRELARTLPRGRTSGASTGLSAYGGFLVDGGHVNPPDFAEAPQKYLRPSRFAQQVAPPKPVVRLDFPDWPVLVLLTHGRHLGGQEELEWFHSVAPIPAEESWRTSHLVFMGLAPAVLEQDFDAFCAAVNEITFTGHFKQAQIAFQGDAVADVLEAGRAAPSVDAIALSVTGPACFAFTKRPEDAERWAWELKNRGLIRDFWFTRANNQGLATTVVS

Compound: Nc1c(C(=O)O)n[nH]c1C(=O)O [compound 5, 4-amino-1H-pyrazole-3,5-dicarboxylate]
LCMS product detection; membrane-inlet mass spectrometry of CO2 production (ForT [1]): LCMS confirmed formation of the expected product when the enzyme was incubated with PRPP

stoichiometry N [2]: 2
Compound: ForT (wild type), C-glycoside synthase from Streptomyces kaniharaensis (enzyme)

Kd (ForT [3]): 4 µM
Kd (ForT [4]): > 200 µM
Compound: O=P(O)(O)OC[C@H]1O[C@H](OP(=O)(O)OP(=O)(O)O)[C@H](O)[C@@H]1O [compound 4, PRPP]
